Assay results published in patent US9538774B2, “Method of feeding livestock to improve carcass characteristics” (Value-Added Science & Technology, LLC., priority 2012, dated 2017).
Entries after “also recorded” stand apart in the source; their conditions may differ.

What was measured:
[1] = system: swine; details: cited from earlier work
[2] = system: commercial finishing pigs; test: Example 2 feeding study: CPFA with and without ractopamine in a 40% DDGS diet; assay type: in vivo
Procedure: A second study was conducted to evaluate the effects of supplementation of CPFA, with and without ractopamine, in a diet containing a high level (40%) of DDGS, on growth performance, carcass characteristics, meat and fat quality in commercial finishing pigs. The experimental diets over a six-week feeding period were a control diet without CPFA and a diet containing 0.0375% CPFA for six weeks; then for the last three weeks a diet was fed that included ractopamine at 4.5 grams per ton for each of the control and CPFA diets. (See FIG. 4). CPFA was added to replace choice white grease in the control diet. As discussed below, no treatment effects on growth performance were observed nor for HCW, dressing percentage or loin muscle, ultimate pH, color or marbling.
Pig body weight (BW) on a pen basis was measured initially and at the end of weeks 3 and 6 to calculate average daily gain (ADG). On each weigh day, feed disappearance was measured to calculate average daily feed intake (ADFI) of pigs on pen basis. Pen ADG and ADFI were, in turn, used to calculate feed conversion ratio (F:G).
Pigs were all harvested on the same day and also weighed individually one day before harvest to obtain a final live BW. HCW was measured on carcasses immediately after harvest. Live BW and HCW of pigs were used to calculate dressing percentage using the following equation: dressing %=(HCW/live BW)×100. Backfat (BF) and loin depth (LD) were measured between the 3rd and 4th rib on each carcass using Fat-O-Meater (Generation II). Percentage of fat-free carcass lean was calculated by Fat-O-Meater using the values of backfat depth and loin depth.
One barrow and one gilt from each pen weighing closest to the mean BW of their pen were selected for evaluation of meat and belly fat quality. Twenty-four hours after carcasses were chilled at 4° C., pH of loin muscle (LM) was measured at the 10th rib using a pH meter. The pH meter was calibrated at the temperature of the LM with pH 4 and 7 buffers. After pH measurement, carcasses were fabricated. Loin muscle samples at the 10th rib were collected for evaluation of meat quality.
Each LM sample was separated into two equal halves, and vacuum-packaged and frozen at −20° C. until analysis. One section of LM sample was measured for Minolta color (L*: lightness; a*: redness; b*: yellowness), loin purge, chop purge, and Instron force (a measurement correlated with tenderness and chewiness). Japanese color score (1=extremely pale to 6=extremely dark; NPPC, 2000) and marbling score (1=1% intramuscular fat to 10=10% intramuscular fat; NPPC, 2000) were also determined by trained panelists.
The other section of the LM sample was used for sensory evaluation. Sensory assessment was performed according to the procedure described by the American Meat Science Association (1995). Samples of LM were thawed at 4° C. overnight and cut into chops approximately 1 inch thick. The chops were weighed before and immediately after cooking to determine cooking loss. After cooking, trained panelists evaluated chops for juiciness, tenderness, chewiness, flavor and off-flavor using a 10-point scale (1=extremely dry, tough, not chewy, none, or none, to 10=extremely juicy, tender, chewy, intense, or intense, respectively). […]
To determine the CPFA residue in carcass fat, each of 6 (3 barrows, 3 gilts) belly fat samples from the third section were randomly selected in control and experimental treatments. Samples were sent for analysis of individual CPFA using HPLC according to the method described by Wood (1986).
All data were analyzed using the MIXED procedure of SAS Inst. Inc. (Cary, N.C.). Pen was used as the experimental unit for all responses. The statistical model included the fixed effects of CPFA, ractopamine, CPFA×ractopamine interactions, and random effect of block. Live BW before harvest and sex were used as the covariates in analysis of carcass characteristics, meat and fat quality, if the effects of these covariates were significant (P<0.05). […]

[3] = 10 or 20 ppm for 25 to 41 days pre-slaughter (Carr et. al., 2005)
[4] = 10 ppm for 28 days (Stoller et. al., 2003)
[5] = 10 ppm for 35 days prior to slaughter (Aalhus, et. al., 1990)
[6] = 40% DDGS diet, CPFA 0.0375% six weeks, ractopamine 4.5 grams per ton last three weeks
[7] = loin muscle, ractopamine 4.5 grams/ton
[8] = ractopamine 4.5 grams per ton last three weeks
[9] = sensory panel, 10-point scale, each additive alone
[10] = sensory panel, ractopamine 4.5 grams/ton

For `CC(CCc1ccc(O)cc1)NCC(O)c1ccc(O)cc1` (centres unmarked) [ractopamine], the color scores [1, 3] is given as “poorer”, the flavor scores [1, 3] is given as “reduced” and the tenderness [1, 3] is given as “reduced”. The “Instron force of loin muscle” value [1, 4] was “increased”, the chewiness score [1, 4] was “increased” and the color score [1, 4] was “reduced”. For the same compound, the tenderness score [1, 4] was “reduced”, the “hardness of fat samples taken from the loin” value [1, 5] was “reduced” and the “sheer force of loin muscle” value [1, 5] was “increased”. The “average daily feed intake (ADFI)” value [2, 6] was “affected”, the “average daily gain (ADG)” value [2, 6] was “affected; also recorded: statistically significant positive effects” and the “feed conversion ratio (F:G)” value [2, 6] was “statistically significant positive effects”. For the same compound, the “weight at harvest (final BW)” value [2, 6] was “affected; also recorded: statistically significant positive effects”, the “Instron force of LM samples” value ([2]; loin muscle, CPFA 0.0375% six weeks, ractopamine 4.5 grams/ton) was “did affect; also recorded: increase” and the “lightness of LM” value [2, 7] was “did affect”. For the same compound, the “redness (Minolta a*) of LM” value [2, 7] was “did affect; also recorded: reductions”, the “yellowness (Minolta b*) of LM” value [2, 7] was “did affect; also recorded: reductions” and the back fat [2, 8] was “reduction”. For the same compound, the “increase of the measure of carcass lean” value [2, 8] was 2%, the loin depth [2, 8] was “increase” and the carcass lean % ([2]; ractopamine 4.5 grams/ton, effect in words) was “statistically significant positive effects”. The juiciness score [2, 9] was “Neither CPFA nor ractopamine alone affected”, the off-flavor score [2, 9] was “Neither CPFA nor ractopamine alone affected” and the chewiness [2, 10] was “increased”. For the same compound, the flavor score [2, 10] was “reduction” and the tenderness [2, 10] was “reduced”.
